According to US9951088B2, “D2 receptor modulators and methods of use thereof in the treatment of diseases and disorders” (SUNOVION PHARMACEUTICALS INC., priority 2012, dated 2018):

Key:
[1] = target: T1, long isoform of human D2 receptor (Homo sapiens, UniProt P14416); experiment: Arrestin Antagonist Assay (DRD2L PathHunter CHO-K1 cells, vs EC80 dopamine); settings: for Emax: CHO-K1, read-out: β-arrestin (antagonist mode) Imax
Description: (§1) Cell Lines: Activities of the compounds were assessed using a Chinese Hamster Ovary (CHO—K1) cell line that recombinantly expressed the long isoform of human D2 receptor (DRD2L PathHunter cells). The D2 receptor DNA sequence was modified to contain a “ProLink” at its C-terminus which allowed complementation with an “enzyme acceptor” (EA)-tagged β-arrestin protein. The recruitment of the O-arrestin by the D2 receptor led to complementation of the ProLink and EA and formation of active β-galactosidase which generated a D2-specific signal that was measured.
Arrestin Antagonist Assay: One day prior to testing, a vial of high density stock of DRD2L PathHunter cells was thawed, and 1×10^7 cells diluted into 40 mL of growth media (Ham's F12/10% HI FBS/1% PSG). 20 μL cells per well were seeded directly into assay plates, and the plates were allowed to rest for 1 h at RT before incubating in a plate incubator overnight.
The plate was incubated for 30 min at 37° C. 15 μL PathHunter detection reagent was added to each well of the assay plate, which was then covered and incubated for 1 h at RT. The plate was read on an Envision reader using the Luminescence protocol, and the data were exported for analysis.
The IC50 values (concentration producing a half-maximal inhibitory response) were determined by non-linear regression analysis of the concentration-response curves.

[2] = target: T1, long isoform of human D2 receptor; experiment: Arrestin Agonist Assay (DRD2L PathHunter CHO-K1 cells, β-arrestin recruitment); settings: for Emax: CHO-K1, read-out: β-arrestin (agonist mode) Emax
Description: as §1
Arrestin Agonist Assay: One day prior to testing, a vial of high density stock of DRD2L PathHunter cells was thawed, and 1×10^7 cells diluted into 40 mL of growth media (Ham's F12/10% HI FBS/1% PSG). 20 μL cells per well were seeded directly into assay plates, and the plates were allowed to rest for 1 h at RT before incubating in a plate incubator overnight.
5 μL diluted compound was added to cells in each well, and the assay plate was incubated for 90 min at 37° C. 12.5 μL PathHunter detection reagent was added to each well of the assay plate, which was then covered and incubated for 1 h at RT. The plate was read on an Envision reader using the Luminescence protocol, and the data were exported for analysis.
The agonist Emax results were expressed as a percent of the dopamine control response ((measured specific response/control specific agonist response)×100) obtained in the presence of test article. The EC50 values (concentration producing a half-maximal specific response) were determined by non-linear regression analysis of the concentration-response curves.

[3] = target: T1, long isoform of human D2 receptor; experiment: cAMP HTRF Agonist Assay (DRD2L PathHunter CHO-K1 cells, forskolin-stimulated); settings: for Emax: CHO-K1, read-out: cAMP (agonist mode) Emax

T1 sequence (P14416 whole entry, canonical isoform): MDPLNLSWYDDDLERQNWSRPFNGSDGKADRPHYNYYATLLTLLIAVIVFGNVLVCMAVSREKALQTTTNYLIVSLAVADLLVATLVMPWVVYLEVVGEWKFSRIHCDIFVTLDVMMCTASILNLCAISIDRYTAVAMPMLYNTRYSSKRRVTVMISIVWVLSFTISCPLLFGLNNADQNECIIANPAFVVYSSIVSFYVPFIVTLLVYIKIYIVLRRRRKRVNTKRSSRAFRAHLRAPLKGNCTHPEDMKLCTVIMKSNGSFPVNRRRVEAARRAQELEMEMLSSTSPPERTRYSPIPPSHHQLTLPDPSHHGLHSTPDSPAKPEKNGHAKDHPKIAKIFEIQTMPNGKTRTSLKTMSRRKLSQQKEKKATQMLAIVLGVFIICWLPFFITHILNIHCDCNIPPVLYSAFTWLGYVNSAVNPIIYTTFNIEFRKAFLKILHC

Row | SMILES | IC50 [1] [nM] | Emax [1] [%] | EC50 [2] [nM] | Emax [2] [%] | IC50 [3] [nM] | Emax [3] [%]
1 | Cn1cc2c(n1)CCN(CCCCOc1ccc3c(c1)NC(=O)CC3)C2 [Compound 24, 7-(4-(2-methyl-6,7-dihydro-2H-pyrazolo[4,3-c]pyridin-5(4H)-yl)butoxy)-3,4-dihydroquinolin-2(1H)-one] | 1000 to 10000 | 25 to 50 | 100 to 1000 | 25 to 50 | 10 to 100 | > 75
2 | c1cc(OCCCCN2CCc3ccccc3C2)nc(-c2cc[nH]n2)c1 [Compound 44, 2-(4-((6-(1H-pyrazol-3-yl)pyridin-2-yl)oxy)butyl)-1,2,3,4-tetrahydroisoquinoline] | 10 to 100 | > 75 | < 10 | 10 to 25 | < 10 | 10 to 25
3 | Clc1cccc(N2CCN(CCCCOc3ccc4cn[nH]c4c3)CC2)c1 [Compound 98, 6-(4-(4-(3-chlorophenyl)piperazin-1-yl)butoxy)-1H-indazole] | 100 to 1000 | 25 to 50 | 10 to 100 | 25 to 50 | 10 to 100 | 50 to 75
4 | COc1ccc(-n2cc3c(n2)CCN(CCCCOc2ccc4c(c2)NC(=O)CC4)C3)cc1 [Compound 39, 7-(4-(2-(4-methoxyphenyl)-6,7-dihydro-2H-pyrazolo[4,3-c]pyridin-5(4H)-yl)butoxy)-3,4-dihydroquinolin-2(1H)-one] | 1000 to 10000 | > 75 | > 10000 | < 10 | > 10000 | < 10
5 | O=C1CCc2ccc(OCCCCN3CCc4cc(Cl)ccc4C3)nc2N1 [Compound 75, 7-(4-(6-chloro-3,4-dihydroisoquinolin-2(1H)-yl)butoxy)-3,4-dihydro-1,8-naphthyridin-2(1H)-one] | 10 to 100 | > 75 | > 10000 | < 10 | < 10 | 10 to 25
6 | Cc1ccc2c(c1)CN(CCCCOc1ccc3ccc(=O)[nH]c3n1)CC2 [Compound 65, 7-(4-(7-methyl-3,4-dihydroisoquinolin-2(1H)-yl)butoxy)-1,8-naphthyridin-2(1H)-one] | 10 to 100 | > 75 | > 10000 | < 10 | < 10 | 10 to 25
7 | O=C1CCc2ccc(OCCCCN3CCc4cccc(C(F)(F)F)c4C3)nc2N1 [Compound 79, 7-(4-(8-(trifluoromethyl)-3,4-dihydroisoquinolin-2(1H)-yl)butoxy)-3,4-dihydro-1,8-naphthyridin-2(1H)-one] | 100 to 1000 | > 75 | > 10000 | < 10 | > 10000 | < 10
8 | CCCOc1cccnc1N1CCN(CCCCOc2ccc3cccc(O)c3n2)CC1 [Compound 11, 2-(4-(4-(3-propoxypyridin-2-yl)piperazin-1-yl)butoxy)quinolin-8-ol] | 100 to 1000 | > 75 | > 10000 | < 10 | > 10000 | < 10
9 | O=C1CCc2ccc(OCCCCN3CCc4nn(-c5ccc(F)cc5)cc4C3)cc2N1 [Compound 37, 7-(4-(2-(4-fluorophenyl)-6,7-dihydro-2H-pyrazolo[4,3-c]pyridin-5(4H)-yl)butoxy)-3,4-dihydroquinolin-2(1H)-one] | 10 to 100 | > 75 | > 10000 | < 10 | > 10000 | < 10
10 | O=C1CCc2ccc(OCCCCN3CCc4nccnc4C3)cc2N1 [Compound 25, 7-(4-(7,8-dihydropyrido[3,4-b]pyrazin-6(5H)-yl)butoxy)-3,4-dihydroquinolin-2(1H)-one] | 1000 to 10000 | 25 to 50 | 100 to 1000 | 25 to 50 | 1000 to 10000 | 50 to 75
11 | N#Cc1cccc2c1CN(CCCCOc1ccc3c(n1)NC(=O)CC3)CC2 [Compound 80, 2-(4-((7-oxo-5,6,7,8-tetrahydro-1,8-naphthyridin-2-yl)oxy)butyl)-1,2,3,4-tetrahydroisoquinoline-8-carbonitrile] | 100 to 1000 | > 75 | > 10000 | < 10 | > 10000 | < 10
12 | c1ccc(N2CCN(CCCCOc3ccc4cn[nH]c4c3)CC2)nc1 [Compound 94, 6-(4-(4-(pyridin-2-yl)piperazin-1-yl)butoxy)-1H-indazole] | > 10000 | < 10 | < 10 | > 75 | < 10 | > 75
13 | Cc1cccc(N2CCN(CCCCOc3ccc4cn[nH]c4c3)CC2)c1C [Compound 95, 6-(4-(4-(2,3-dimethylphenyl)piperazin-1-yl)butoxy)-1H-indazole] | 10 to 100 | > 75 | > 10000 | < 10 | 10 to 100 | 10 to 25
14 | CCC(=O)Nc1cccc(OCCCCN2CCc3ccccc3C2)n1 [Compound 41, N-(6-(4-(3,4-dihydroisoquinolin-2(1H)-yl)butoxy)pyridin-2-yl)-propionamide] | 100 to 1000 | > 75 | > 10000 | < 10 | > 10000 | < 10
15 | O=C1CCc2ccc(OCCCCN3CCc4c(cccc4C(F)(F)F)C3)nc2N1 [Compound 77, 7-(4-(5-(trifluoromethyl)-3,4-dihydroisoquinolin-2(1H)-yl)butoxy)-3,4-dihydro-1,8-naphthyridin-2(1H)-one] | > 10000 | < 10 | 100 to 1000 | 50 to 75 | 10 to 100 | 50 to 75
16 | COc1ccc2c(c1)CCN(CCCCOc1ccc3ccc(=O)[nH]c3n1)C2 [Compound 55, 7-(4-(6-methoxy-3,4-dihydroisoquinolin-2(1H)-yl)butoxy)-1,8-naphthyridin-2(1H)-one] | < 10 | > 75 | < 10 | 10 to 25 | < 10 | 25 to 50
17 | O=c1ccc2ccc(OCCCCN3CCc4cc(C(F)(F)F)ccc4C3)nc2[nH]1 [Compound 58, 7-(4-(6-(trifluoromethyl)-3,4-dihydroisoquinolin-2(1H)-yl)butoxy)-1,8-naphthyridin-2(1H)-one] | 10 to 100 | > 75 | < 10 | 10 to 25 | < 10 | 25 to 50
18 | Clc1ccccc1N1CCN(CCCCOc2cccc(-c3cc[nH]n3)n2)CC1 [Compound 50, 1-(4-((6-(1H-pyrazol-3-yl)pyridin-2-yl)oxy)butyl)-4-(2-chlorophenyl)piperazine] | < 10 | 50 to 75 | < 10 | 25 to 50 | < 10 | 50 to 75
19 | O=C1CCc2ccc(OCCCCN3CCn4cncc4C3)cc2N1 [Compound 33, 7-(4-(5,6-dihydroimidazo[1,5-a]pyrazin-7(8H)-yl)butoxy)-3,4-dihydroquinolin-2(1H)-one] | 1000 to 10000 | 50 to 75 | > 10000 | < 10 | > 10000 | < 10
20 | N#Cc1cccnc1N1CCN(CCCCOc2ccc3cccc(O)c3n2)CC1 [Compound 22, 2-(4-(4-((8-hydroxyquinolin-2-yl)oxy)butyl)piperazin-1-yl)nicotinonitrile] | 100 to 1000 | 25 to 50 | 10 to 100 | 25 to 50 | < 10 | 25 to 50
